Experiments:
Beta-secretase 1 [1] = biological target: T1, Beta-secretase 1 (Homo sapiens, UniProt P56817); assay: Inhibition of human BACE1 using HiLyte Fluo488/QXL-520 peptide substrate by fluorescence assay
Beta-secretase 1 [2] = biological target: T1, Beta-secretase 1; assay: Inhibition of human BACE1 using HiLyte Fluo488/QXL-520 peptide substrate at 10 uM by fluorescence assay

T1 sequence (P56817 whole entry): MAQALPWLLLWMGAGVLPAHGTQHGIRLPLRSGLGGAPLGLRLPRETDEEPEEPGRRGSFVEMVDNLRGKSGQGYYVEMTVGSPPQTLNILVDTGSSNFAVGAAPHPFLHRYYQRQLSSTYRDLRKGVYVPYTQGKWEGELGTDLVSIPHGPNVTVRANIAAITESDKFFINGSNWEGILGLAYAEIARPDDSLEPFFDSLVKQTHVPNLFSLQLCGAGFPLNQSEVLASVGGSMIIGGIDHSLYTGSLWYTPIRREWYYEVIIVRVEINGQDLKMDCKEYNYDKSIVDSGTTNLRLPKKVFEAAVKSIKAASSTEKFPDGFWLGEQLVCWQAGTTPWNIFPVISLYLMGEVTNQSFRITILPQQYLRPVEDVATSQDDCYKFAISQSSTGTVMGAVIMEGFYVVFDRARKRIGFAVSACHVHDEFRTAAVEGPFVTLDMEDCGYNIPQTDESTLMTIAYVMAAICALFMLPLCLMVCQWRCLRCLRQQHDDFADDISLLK

IC50 (Beta-secretase 1 [1])	Compound	inhibition (Beta-secretase 1 [2])
5.7 µM	COC(=O)[C@H]1OCC(=S)N[C@@H]1c1ccc(OC)cc1	40%
–	COc1ccc([C@H]2NC(=N)CO[C@@H]2C(N)=O)cc1Br	17%
–	COc1ccc([C@H]2NC(=N)CO[C@@H]2C(N)=O)cc1	27%
–	COC(=O)[C@H]1OCC(=S)N[C@@H]1c1ccc(OC)c(Br)c1	26%
–	COC(=O)[C@H]1OCC(=S)N[C@@H]1c1ccc(OC)c(OC)c1	24%
–	COc1ccc([C@H]2NC(=N)CO[C@@H]2C(N)=O)cc1OC	10%
–	Cc1ccc([C@H]2NC(=N)CO[C@@H]2C(N)=O)cc1	14%
–	COC(=O)[C@H]1OCC(=S)N[C@@H]1c1ccc(C)cc1	19%

From ChEMBL document CHEMBL4622858, “Synthesis of morpholine derivatives using the Castagnoli-Cushman reaction as BACE1 inhibitors: Unexpected binding activity of cyclic thioamides” (Bioorg Med Chem Lett, 2020)
